Patent publication US20100297046A1, “Compositions and Methods Related to Fructosamine-3-Kinase Inhibitors” (DYNAMIS THERAPEUTICS, INC., priority 2006, published 2010)
Several values for one entry are separate records, joined by “and”; a condition that tells them apart may be missing. Equal entries are not always repeated.

What was measured:
[1] = system: 3-deoxyglucosone; test: Reduction of urinary and plasma 3-deoxyglucosone in rats; type: in vivo, rat; conditions: for Plasma 3-deoxyglucosone reduced / average reduction of urinary 3-deoxyglucosone: rats, 10 μmols intraperitoneal; for Plasma 3-deoxyglucosone reduced: plasma at end of three hours; for average reduction of urinary 3-deoxyglucosone: urine three hours after vs before, normalized to creatinine
Method: Urine was collected from six rats for three hours. A plasma sample was also obtained. The animals were then given 10 μmols of either sorbitollysine, mannitollysine, or galactitollysine by intraperitoneal injection. Urine was collected for another three hours, and a plasma sample obtained at the end of the three hours.
a. 3-deoxyglucosone was measured in the samples, as described in Example 5, below, and variable volumes were normalized to creatinine. The average reduction of urinary 3-deoxyglucosone was 50% by sorbitollysine, 35% by mannitollysine and 35% by galactitollysine. Plasma 3-deoxyglucosone was reduced 40% by sorbitollysine, 58% by mannitollysine and 50% by galactitollysine.
Three rats were treated as in b), immediately above, except meglumine (100 μmols) was injected intraperitoneally instead of the above-mentioned lysine derivatives. Three hours after the injection the average 3-deoxyglucosone concentrations in the urine were decreased 42%.
3DG was measured by GC-MS after deionization of the sample. 3DG was derivatized with a 10-fold excess of diaminonaphthalene in PBS. Ethyl acetate extraction gave a salt free fraction which was converted to the trimethyl silyl ethers with Tri-Sil (Pierce). Analysis was performed on a Hewlett-Packard 5890 selected ion monitoring GC-MS system. GC was performed on a fused silica capillary column (DB-5.25 mx. […]) using the following temperature program: injector port 250° C., initial column temperature 150° C. which is held for 1 minute, then increased to 290° C. at 16° C./minute and held for 15 minutes. Quantitation of 3DG employed selected ion monitoring using an internal standard of U-13C-3DG.

[2] = design: species or system human; conditions: in vivo
Method: Volunteers spent two days on a fructoselysine-free diet and then consumed 22.5 g of the food product prepared as described herein, thus effectively receiving a 2 gram dose of fructoselysine. Urine was collected at 2 hour intervals for 14 hours and a final collection was made at 24 hours. FL was measured by HPLC with a Waters 996 diode Array using a Waters C18 Free Amino Acid column at 46° C. and a gradient elution system of acetonitrile-methyl alcohol-water (45:15:40) into acetonitrile-sodium acetate-water (6:2:92) at 1 ml/min. Quantitation employed an internal standard of meglumine. 3DF was measured by HPLC after deionization of the sample. Analyses were performed on a Dionex DX-500 HPLC system employing a PA1 column (Dionex) and eluting with 32 mM sodium hydroxide at 1 ml/min. Quantitation was performed from standard curves obtained daily with synthetic 3DF. 3DG was measured by GC-MS after deionization of the sample. 3DG was derivatized with a 10-fold excess of diaminonaphthalene in PBS. Ethyl acetate extraction gave a salt free fraction which was converted to the trimethyl silyl ethers with Tri-Sil (Pierce). Analysis was performed on a Hewlett-Packard 5890 selected ion monitoring GC-MS system. […] Quantitation of 3DG employed selected ion monitoring using an internal standard of U-13C-3DG.

[3] = system: mouse mesangial cells; test: Type IV collagen production in kidney cells in vitro; type: cell-based
Method: Type IV collagen production was measured in mouse mesangial cells. Controls (grown with […]) produced 300 ng of Type IV collagen per 10,000 cells, whereas fructoselysine treated cells (5 or 10 mM fructoselysine with 10 mM glucose) produced 560 and 1100 ng/10,000 cells.

[4] = Locus of 3-O-methyl sorbitollysine uptake in vivo (recovery from tissues, urine, plasma); design: species or system rat
Method: […] Urine was collected for 3 hours, after which the rats were sacrificed. The tissues to be analyzed were removed and freeze clamped in liquid nitrogen. Perchloric acid extracts of the tissues were used for metabolite analysis. The tissues examined were taken from the brain, heart, muscle, sciatic nerve, spleen, pancreas, liver, and kidney. Plasma was also analyzed.

[5] = system: 3DG; test: Plasma 3DG levels in diabetic and non-diabetic rats treated with 3-O-methyl sorbitollysine; type: in vivo, rat; conditions: for plasma 3DG level: 50 mg/kg body weight injections, within one week
Method: A cohort of twelve diabetic rats was divided into two groups of six. The first group received saline-only injections, and the second received injections of 3-O-methyl sorbitollysine (50 mg/kg body weight) in saline solution. The same procedure was conducted on a cohort of twelve non-diabetic rats.

[6] = system: skin of STZ-diabetic rats; test: Skin elasticity measurement (vacuum pull) in STZ-diabetic and normal rats; type: in vivo, rat; conditions: 50 mg/kg daily subcutaneous, eight weeks
Method: Experiments were performed to determine the effects of DYN 12 on the loss of skin elasticity associated with diabetes. To this end, two groups of STZ-diabetic rats and two groups of normal rats were subjected to treatment with DYN 12 or saline. One group of STZ-diabetic rats (n=9) received daily subcutaneous injections of DYN 12 at 50 mg/kg for eight weeks, as did one group of normal rats (n=6). A group of control diabetic rats (n=10) and a group of normal rats (n=6) received saline instead of DYN 12. One rat was removed from the diabetic DYN 12 group after 2 weeks because its blood glucose readings were inconsistent (too low) with other diabetic rats.
A non-invasive procedure based on CyberDERM, Inc. technology utilizing a skin elasticity measurement device was used to test the effects of DYN 12 treatment on skin elasticity. The procedure provides for non-invasive measurement of skin elasticity based upon the amount of vacuum pull required to displace skin. A suction cup probe is adhered to an area of shaved skin in order to form an airtight seal. Then, a vacuum is applied to the area of the skin inside the suction cup until the skin is displaced past a sensor located inside the probe. Accordingly, the more pressure that is required to displace the skin, the less elastic the skin is.

[7] = system: diabetic rats; test: Muscle strength / resistance to pull in alert restrained diabetic rats; type: in vivo, rat; conditions: diabetic rats treated vs not treated; preliminary data
Excerpt: The present invention also encompasses methods for prevention of hair loss associated with or mediated by loss of microcirculation and/or loss of neuro-innervation in populations of aging, sclerodermic and/or in diabetic individuals. This is because 3DG is a known precursor to the formation of AGEs which are known to be causally connected to the development of neuropathy. […] This supports the concept that maintenance of nerve conduction and microcirculation that supports nerve innervation is deleteriously affected not only by AGEs, but also 3DG. Similarly, where 3DG would cause blockage of the microcirculation that supports nerve innervation of the hair follicle, the hair follicle will atrophy and die, as is the case in neuropathy. Accordingly, the present invention includes methods for preventing hair loss, where such hair loss is associated with or mediated by the presence of 3DG in the skin proximal to a hair follicle/shaft.
Skin elasticity measurements were also taken on the test subjects as described above, but without sedating the test animals before measurement. FIG. 15 illustrates skin elasticity measurements taken on the hind leg of the test subjects while the subjects were alert and being restrained by a technician.
In these experiments, the animals were fiercely fighting restraint and the results are different.

[8] = target: T1, Calf skin collagen Type I (Bos taurus, UniProt P02453+P02465); test: Collagen crosslinking by 3DG in vitro (CNBr digestion, SDS-PAGE); type: biochemical; conditions: 37° C., 24 hours
T1 construct: Calf skin collagen Type I (1.3 mg; Sigma); purchased Sigma; host or cells: calf skin (tissue-derived)
T1 sequence (P02453 162-1217 limits assumed): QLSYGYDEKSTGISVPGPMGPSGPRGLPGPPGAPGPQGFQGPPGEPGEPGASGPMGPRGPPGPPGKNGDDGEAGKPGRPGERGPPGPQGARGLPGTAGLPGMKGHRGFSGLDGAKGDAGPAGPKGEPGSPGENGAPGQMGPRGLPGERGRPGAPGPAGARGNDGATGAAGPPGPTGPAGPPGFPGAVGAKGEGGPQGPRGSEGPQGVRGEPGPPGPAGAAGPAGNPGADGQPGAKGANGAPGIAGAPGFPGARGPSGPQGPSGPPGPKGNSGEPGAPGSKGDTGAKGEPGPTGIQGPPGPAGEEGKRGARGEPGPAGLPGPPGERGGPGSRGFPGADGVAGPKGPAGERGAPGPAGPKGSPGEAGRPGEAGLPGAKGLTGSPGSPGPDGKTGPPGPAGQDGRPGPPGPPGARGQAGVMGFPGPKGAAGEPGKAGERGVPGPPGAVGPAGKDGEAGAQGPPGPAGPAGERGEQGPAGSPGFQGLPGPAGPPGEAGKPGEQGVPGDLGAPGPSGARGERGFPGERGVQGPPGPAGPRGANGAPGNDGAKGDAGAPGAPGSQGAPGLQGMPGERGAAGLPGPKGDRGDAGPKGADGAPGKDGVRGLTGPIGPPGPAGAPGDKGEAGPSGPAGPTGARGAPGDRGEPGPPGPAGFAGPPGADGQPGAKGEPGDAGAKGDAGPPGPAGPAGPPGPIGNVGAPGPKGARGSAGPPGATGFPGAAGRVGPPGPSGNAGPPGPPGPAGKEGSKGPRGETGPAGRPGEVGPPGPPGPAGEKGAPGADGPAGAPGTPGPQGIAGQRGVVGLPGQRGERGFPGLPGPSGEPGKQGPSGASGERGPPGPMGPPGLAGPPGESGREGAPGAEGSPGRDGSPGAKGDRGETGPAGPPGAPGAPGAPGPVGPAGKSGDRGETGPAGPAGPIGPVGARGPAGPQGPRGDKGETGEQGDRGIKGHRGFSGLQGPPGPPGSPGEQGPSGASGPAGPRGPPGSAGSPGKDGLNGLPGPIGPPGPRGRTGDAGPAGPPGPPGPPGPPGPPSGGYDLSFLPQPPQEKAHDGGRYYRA
T1 sequence (P02465 80-1117 limits assumed): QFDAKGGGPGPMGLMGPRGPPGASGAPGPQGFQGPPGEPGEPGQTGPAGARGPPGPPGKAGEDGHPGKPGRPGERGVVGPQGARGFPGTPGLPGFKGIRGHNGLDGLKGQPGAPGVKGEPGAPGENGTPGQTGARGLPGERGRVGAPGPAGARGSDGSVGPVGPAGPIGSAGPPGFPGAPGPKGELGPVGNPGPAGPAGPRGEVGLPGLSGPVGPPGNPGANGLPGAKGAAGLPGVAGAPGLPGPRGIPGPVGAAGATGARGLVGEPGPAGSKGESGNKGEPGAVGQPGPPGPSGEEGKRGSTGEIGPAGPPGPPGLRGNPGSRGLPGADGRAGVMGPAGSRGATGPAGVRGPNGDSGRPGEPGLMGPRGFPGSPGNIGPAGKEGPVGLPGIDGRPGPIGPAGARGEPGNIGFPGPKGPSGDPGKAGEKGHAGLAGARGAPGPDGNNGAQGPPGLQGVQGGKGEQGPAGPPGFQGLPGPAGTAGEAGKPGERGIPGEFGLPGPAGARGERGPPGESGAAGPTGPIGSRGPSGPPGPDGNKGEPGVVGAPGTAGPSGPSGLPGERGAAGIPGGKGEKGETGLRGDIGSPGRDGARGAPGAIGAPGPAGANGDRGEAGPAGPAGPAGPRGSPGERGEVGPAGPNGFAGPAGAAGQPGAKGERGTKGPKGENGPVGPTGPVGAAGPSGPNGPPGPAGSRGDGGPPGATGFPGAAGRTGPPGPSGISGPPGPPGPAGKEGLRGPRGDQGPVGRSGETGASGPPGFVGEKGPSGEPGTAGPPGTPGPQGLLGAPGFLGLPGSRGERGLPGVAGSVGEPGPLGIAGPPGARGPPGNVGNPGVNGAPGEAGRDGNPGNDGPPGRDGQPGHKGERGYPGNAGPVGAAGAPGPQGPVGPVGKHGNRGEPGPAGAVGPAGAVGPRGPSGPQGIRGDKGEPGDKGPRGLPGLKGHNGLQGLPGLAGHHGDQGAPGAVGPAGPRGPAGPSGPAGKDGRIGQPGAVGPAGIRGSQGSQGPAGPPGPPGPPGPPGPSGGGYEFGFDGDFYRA
Method: Collagen type I was treated with 3DG in the presence or absence of arginine. The samples were subjected to cyanogen bromide (CNBr) digestion, electrophoresed on a 16.5% SDS Tris-tricine gel, and then the gels were processed using silver stain techniques to visualize the proteins. Lane 1 contains molecular weight marker standards. Lanes 2 and 5 contain 10 and 20 μl of the collagen mixture following CNBr digestion. Lanes 3 and 6 contain the collagen mixture treated with 3DG and then digested with CNBr, and loaded at 10 and 20 μl, respectively. Lanes 4 and 7 contain the mixture of collagen incubated with 5 mM 3DG and 10 mM arginine and then digested with CNBr, and loaded at 10 and 20 μl, respectively.
Collagen I was incubated in the presence or absence of 3DG in vitro. Calf skin collagen Type I (1.3 mg; Sigma) was incubated in 20 mM Na-phosphate buffer, pH 7.25, either alone, with 5 mM 3DG, or with 5 mM 3DG plus 10 mM arginine, in a total volume of 1 ml at 37° C. for 24 hours and then frozen and lyophilized. The residue was dissolved in 0.5 ml of 70% formic acid and cyanogen bromide was added (20:1, w/w). This solution was incubated at 30° C. for 18 hours. […] The extent of collagen crosslinking was determined by applying equal volumes of sample and analyzing by SDS-PAGE electrophoresis (16.5% Tris-tricine gel), as determined by the effects of 3DG on the migration of collagen.

For N[C@@H](CCCCNC[C@H](O)[C@@H](O)[C@@H](O)[C@H](O)CO)C(=O)O [galactitollysine], the “Plasma 3-deoxyglucosone reduced” value [1] was 50% and the “average reduction of urinary 3-deoxyglucosone” value (“average reduction” below) [1] was 35%.
With N[C@@H](CCCCNC[C@H](O)[C@@H](O)[C@H](O)[C@H](O)CO)C(=O)O [sorbitollysine] the “Plasma 3-deoxyglucosone reduced” value [1] was 40% and the “average reduction” value [1] was 50%.
With NC(CCCCNCC(=O)C(O)C(O)C(O)CO)C(=O)O (stereo not drawn) [fructoselysine, 1-deoxy-1-(ε-aminolysine)-fructose] the “time of peak 3DF excretion in urine after the bolus” value [2] was “about 4 hours”, the “Type IV collagen production” value ([3]; 5 mM fructoselysine with 10 mM glucose) was 560 ng/10,000 cells and the “Type IV collagen production” value ([3]; 10 mM fructoselysine with 10 mM glucose) was 1100 ng/10,000 cells.
In the case of CO[C@@H]([C@H](O)[C@H](O)CO)[C@@H](O)CNCCCC[C@H](N)C(=O)O [DYN 12, 3-O-methylsorbitollysine], the “nmols 3OMeSL in kidneys” value ([4]; 13500 nmols injected intraperitoneally, sacrificed after 3 hours, one line per rat, listed as 3OMeSL) is reported as 8155 nmols and 3880 nmols and 10071 nmols and 6582 nmols and 5373 nmols and 4833 nmols, the “Nmols 3OMeSL in urine” value ([4]; 13500 nmols injected intraperitoneally, urine collected 3 hours, one line per rat (Rat # 2084-2089), listed as 3OMeSL) is reported as 4200 nmols and 1355 nmols and 2940 nmols and 1675 nmols and 1778 nmols and 2360 nmols and the “presence in urine and plasma” value ([4]; 3 hours after ip injection) is reported as “The urine also contained 3-O-methyl sorbitollysine, but plasma did not”. The “tissue extracts found to contain the compound” value ([4]; brain, heart, muscle, sciatic nerve, spleen, pancreas, liver, kidney examined 3 hours after ip injection) was “The only tissue extract found to contain 3-O-methyl sorbitollysine was that of the kidney”, the “% 3OMeSL recovered (percentage of the injected dose recovered from urine and kidney)” value ([4]; urine plus kidneys, one line per rat, listed as 3OMeSL) was 91.5% and 38.8% and 96.4% and 61.2% and 53.0% and 53.3% and the “total 3OMeSL recovered” value ([4]; urine plus kidneys, one line per rat, listed as 3OMeSL, in nmol) was 12355 and 5235 and 13011 and 8257 and 7151 and 7193. For the same molecule, the “% Reduction of plasma 3DG vs saline only” value ([5]; Diabetic rats) was 53%, the “plasma 3DG level” value ([5]; Diabetic rats) was 0.44 ± 0.10 µM and the “% Reduction of plasma 3DG vs saline only” value ([5]; Non-diabetic rats) was 43%. For the same molecule, the “plasma 3DG level” value ([5]; Non-diabetic rats) was 0.13 ± 0.02 µM, the “amount of pressure needed to displace the skin” value [6] was 3.2+/−1.2 kPA and the “muscle strength measured while alert” value [7] was “stronger muscle strength”.
For N=C(N)NCCC[C@H](N)C(=O)O [arginine, reference compound], the “inhibition of 3DG induced collagen crosslinking” value ([8]; 5 mM 3DG plus 10 mM arginine) was “fewer high molecular bands”.
With CNC[C@H](O)[C@@H](O)[C@H](O)[C@H](O)CO [meglumine] the “average 3-deoxyglucosone concentrations in the urine decreased” value ([1]; three rats, 100 μmols intraperitoneal, three hours after the injection) was 42%.
With N[C@@H](CCCCNC[C@@H](O)[C@@H](O)[C@H](O)[C@H](O)CO)C(=O)O [mannitollysine] the “Plasma 3-deoxyglucosone reduced” value [1] was 58% and the “average reduction” value [1] was 35%.
With O=CC(=O)C[C@H](O)[C@H](O)CO [3DG, 3-deoxyglucosone] the “collagen crosslinking (migration on SDS-PAGE)” value ([8]; 5 mM 3DG) was “caused the collagen to migrate as if it had a higher molecular weight”.
